Source: US12102637B2, “Pharmaceutical formulations for treating endometriosis, uterine fibroids, polycystic ovary syndrome or adenomyosis” (AbbVie Inc., priority 2017, dated 2024)

Assay: Drug interaction studies: co-administered drug in the presence of elagolix
Conditions: for direction of the change in AUC of concomitant drug: co-administered with ORILISSA (elagolix)
[1] = Ethinyl estradiol 35 mcg and triphasic norgestimate 0.18/0.215/0.25 mg once daily, elagolix 150 mg once daily, N 21
[2] = Digoxin 0.5 mg single dose, elagolix 200 mg twice daily × 10 days, N 11
[3] = Midazolam 2 mg single dose, elagolix 150 mg once daily × 13 days, N 11
[4] = Midazolam 2 mg single dose, elagolix 300 mg twice daily × 11 days, N 20
[5] = Norethindrone 0.35 mg once daily × 112 days, elagolix 150 mg once daily × 56 days, N 32
[6] = Rosuvastatin 20 mg once daily, elagolix 300 mg twice daily × 7 days, N 10

Protocol: Drug interaction studies were performed with elagolix and other drugs that are likely to be co-administered and with drugs commonly used as probes for pharmacokinetic interactions.

C#C[C@]1(O)CC[C@H]2[C@@H]3CCC4=CC(=NO)CC[C@@H]4[C@H]3CC[C@@]21CC (mixture of isomers) [Norelgestromin]
AUC Ratio (with elagolix vs medication alone) [1]: 0.85
Cmax Ratio (with elagolix vs medication alone) [1]: 0.87

C#CC1(O)CC[C@H]2[C@@H]3CCC4=CC(=O)CC[C@@H]4[C@H]3CC[C@@]21CC (mixture of isomers) [Norgestrel]
AUC Ratio (with elagolix vs medication alone) [1]: 0.92
Cmax Ratio (with elagolix vs medication alone) [1]: 0.89

C[C@H]1O[C@@H](O[C@H]2[C@@H](O)C[C@H](O[C@H]3[C@@H](O)C[C@H](O[C@H]4CC[C@@]5(C)[C@H](CC[C@@H]6[C@@H]5C[C@@H](O)[C@]5(C)[C@@H](C7=CC(=O)OC7)CC[C@]65O)C4)O[C@@H]3C)O[C@@H]2C)C[C@H](O)[C@@H]1O [Digoxin]
AUC Ratio (with elagolix vs medication alone) [2]: 1.26
Cmax Ratio (with elagolix vs medication alone) [2]: 1.71
direction of the change in AUC of concomitant drug: ↑ digoxin

C#C[C@]1(O)CC[C@H]2[C@@H]3CCc4cc(O)ccc4[C@H]3CC[C@@]21C [Ethinyl Estradiol]
AUC Ratio (with elagolix vs medication alone) [1]: 1.30
Cmax Ratio (with elagolix vs medication alone) [1]: 1.15

Cc1ncc2n1-c1ccc(Cl)cc1C(c1ccccc1F)=NC2 [Midazolam]
AUC Ratio (with elagolix vs medication alone) [3]: 0.65
Cmax Ratio (with elagolix vs medication alone) [3]: 0.81
AUC Ratio (with elagolix vs medication alone) [4]: 0.46
Cmax Ratio (with elagolix vs medication alone) [4]: 0.56
direction of the change in AUC of concomitant drug: ↓ midazolam

C#C[C@]1(O)CC[C@H]2[C@@H]3CCC4=CC(=O)CC[C@@H]4[C@H]3CC[C@@]21C [Norethindrone]
AUC Ratio (with elagolix vs medication alone) [5]: 0.88
Cmax Ratio (with elagolix vs medication alone) [5]: 0.95

CC(C)c1nc(N(C)S(C)(=O)=O)nc(-c2ccc(F)cc2)c1/C=C/[C@@H](O)C[C@@H](O)CC(=O)O [Rosuvastatin]
AUC Ratio (with elagolix vs medication alone) [6]: 0.60
Cmax Ratio (with elagolix vs medication alone) [6]: 0.99
direction of the change in AUC of concomitant drug: ↓ rosuvastatin
